Measurements: patent US9605004B2, “Chemical compounds” (SYNGENTA LIMITED, priority 2013, dated 2017)

Experiments:
[1] = system: a variety of test species; assay: Pre-emergence herbicidal activity (Example 8a, Table 2); format: in vivo; design: key: 0 = no damage to plant, 5 = total damage to plant; conditions: application pre-emergence, rate 1000 g/ha, evaluated after 13 days
Method in brief: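 Pre-emergence spray, one day post-sowing; vehicle acetone/water (50:50) + 0.5% Tween 20, aqueous dilution. Glasshouse 24/16 °C, 14 h light, 65% RH, watering twice daily. Score at 13 d on 0–5 scale, 5 = total damage.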

[2] = system: a variety of test species; assay: Post-emergence herbicidal activity (Example 8b, Table 3); format: in vivo; conditions: application post-emergence, rate 1000 g/ha, evaluated after 13 days, scale 0-5; for Herbicidal damage score, ABUTH: Abutilon theophrasti; for Herbicidal damage score, ALOMY: Alopecurus myosuroides; for Herbicidal damage score, AMARE: Amaranthus retroflexus; for Herbicidal damage score, ECHCG: Echinochloa crus-galli; for Herbicidal damage score, SETFA: Setaria faberi; for Herbicidal damage score, ZEAMX: Zea mays
Method in brief: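 Foliar application to 8-day-old plants using a 0.5% Tween 20 acetone/water carrier; phytotoxicity is scored visually from 0 to 5 after 13 days of growth at 24/16 °C day/night.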

| Structure (SMILES) | Pre-emergence herbicidal activity, damage score ABUTH [1] | Pre-emergence herbicidal activity, damage score ALOMY [1] | Pre-emergence herbicidal activity, damage score AMARE [1] | Pre-emergence herbicidal activity, damage score ECHCG [1] | Pre-emergence herbicidal activity, damage score SETFA [1] | Pre-emergence herbicidal activity, damage score ZEAMX [1] | Herbicidal damage score, ABUTH [2] | Herbicidal damage score, ALOMY [2] | Herbicidal damage score, AMARE [2] | Herbicidal damage score, ECHCG [2] | Herbicidal damage score, SETFA [2] | Herbicidal damage score, ZEAMX [2] |
| --- | --- | --- | --- | --- | --- | --- | --- | --- | --- | --- | --- | --- |
| CC1=C(Br)C(=O)N(c2nn(C)c(C(C)(C)C)c2C#N)C1O (stereo not drawn) [Compound L1] | 5 | 4 | 5 | 5 | 5 | 3 | 5 | 5 | 5 | 5 | 5 | 3 |
| CCC1=C(Br)C(=O)N(c2nn(C)c(C(C)(C)C)c2C#N)C1O (stereo not drawn) [Compound L2] | 4 | 3 | 3 | 4 | 3 | 0 | 5 | 5 | 5 | 5 | 5 | 1 |
| CCCC1=C(Br)C(=O)N(c2nn(C)c(C(C)(C)C)c2C#N)C1OC(=O)CC (stereo not drawn) [Compound L3] | 4 | 3 | 3 | 4 | 3 | 2 | 5 | 4 | 4 | 5 | 5 | 2 |
| CCCC1=C(Br)C(=O)N(c2nn(C)c(C(C)(C)C)c2C#N)C1O (stereo not drawn) [Compound L4] | 4 | 4 | 3 | 5 | 4 | 2 | 5 | 5 | 5 | 5 | 5 | 2 |
| CC1=C(Br)C(=O)N(c2cc3n(n2)CCC3(C)C)C1O (stereo not drawn) [Compound M1] | 5 | 4 | 5 | 5 | 5 | 4 | 5 | 5 | 5 | 5 | 5 | 4 |
| CC1=C(Br)C(=O)N(c2cc3n(n2)CCCC3(C)C)C1O (stereo not drawn) [Compound M2] | 5 | 4 | 5 | 5 | 4 | 3 | 5 | 5 | 5 | 5 | 5 | 3 |
| CC1=C(Br)C(=O)N(c2cc3n(n2)CCSC3(C)C)C1O (stereo not drawn) [Compound M3] | 4 | 3 | 5 | 3 | 2 | 0 | 5 | 5 | 5 | 5 | 5 | 1 |
| CC1=C(Br)C(=O)N(c2cc3n(n2)CCS(=O)(=O)C3(C)C)C1O (stereo not drawn) [Compound M4] | 5 | 2 | 5 | 2 | 2 | 1 | 5 | 4 | 5 | 5 | 4 | 0 |
| CC1=C(Br)C(=O)N(c2nn(C)c3c2CCC3(C)C)C1O (stereo not drawn) [Compound N1] | 5 | 4 | 5 | 4 | 5 | 4 | 5 | 5 | 5 | 5 | 5 | 4 |
| COC1=C(Br)C(=O)N(c2nn(C)c(C(C)(C)C)c2Br)C1O (stereo not drawn) [Compound O1] | 0 | 0 | 0 | 0 | 0 | 0 | 0 | 0 | 0 | 0 | 0 | 0 |
| COC1=C(C)C(O)N(c2cc3n(n2)CCC3(C)C)C1=O (stereo not drawn) [Compound R1] | 5 | 4 | 5 | 5 | 5 | 4 | 5 | 5 | 5 | 5 | 5 | 5 |
| COC1=C(C)C(O)N(c2cc3n(n2)CCCC3(C)C)C1=O (stereo not drawn) [Compound R2] | 5 | 4 | 5 | 5 | 5 | 4 | 5 | 5 | 5 | 5 | 5 | 4 |
| COC1=C(OC)C(O)N(c2cc(C(C)(C)C)n(C)n2)C1=O (stereo not drawn) [Compound T1] | 5 | 4 | 5 | 5 | 4 | 2 | 5 | 5 | 5 | 5 | 5 | 3 |
| COC1=C(OC)C(O)N(c2cc(C(F)(F)F)n(C)n2)C1=O (stereo not drawn) [Compound T2] | 5 | 4 | 4 | 5 | 5 | 4 | 5 | 5 | 5 | 5 | 5 | 5 |
| COC1=C(OC)C(O)N(c2cc3n(n2)CCC3(C)C)C1=O (stereo not drawn) [Compound W1] | 5 | 4 | 5 | 4 | 5 | 3 | 5 | 5 | 5 | 5 | 5 | 5 |
